Reference: PubChem BioAssay (NCI)
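Growth conditions: 96-well plates. Treatment: test compound, 48 hours, 5 concentrations. Analysis: linear interpolation between bracketing concentrations; unreached endpoints set to highest concentration. At the GI50, growth is halved. TGI denotes the concentration required for complete inhibition of growth.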

Legend:
Assay in all cases: inhibition of tumour cell growth, NCI panel, 48 h
NCI-H522 lung = system: NCI-H522 lung
SK-MEL-5 melanoma = system: SK-MEL-5 melanoma
IGROV1 ovarian = system: IGROV1 ovarian
BT-549 breast = system: BT-549 breast
MOLT-4 leukemia = system: MOLT-4 leukemia
HCT-15 colon = system: HCT-15 colon
NCI-H23 lung = system: NCI-H23 lung
UO-31 renal = system: UO-31 renal
A498 renal = system: A498 renal
MDA-MB-435 = system: MDA-MB-435
HOP-92 NSCLC = system: HOP-92 NSCLC
NCI-H226 lung = system: NCI-H226 lung
ACHN renal = system: ACHN renal
EKVX NSCLC = system: EKVX NSCLC
SNB-19 CNS = system: SNB-19 CNS
SF-295 CNS = system: SF-295 CNS
K-562 leukemia = system: K-562 leukemia
SNB-75 CNS = system: SNB-75 CNS
UACC-62 melanoma = system: UACC-62 melanoma
LOX IMVI melanoma = system: LOX IMVI melanoma
SN12C renal = system: SN12C renal
OVCAR-5 ovarian = system: OVCAR-5 ovarian
RPMI-8226 leukemia = system: RPMI-8226 leukemia
HCC-2998 colon = system: HCC-2998 colon
COLO 205 colon = system: COLO 205 colon
MCF7 breast = system: MCF7 breast
786-0 renal = system: 786-0 renal
NCI-H460 lung = system: NCI-H460 lung
PC-3 prostate = system: PC-3 prostate
CAKI-1 renal = system: CAKI-1 renal
HT29 colon = system: HT29 colon
NCI/ADR-RES ovarian = system: NCI/ADR-RES ovarian
UACC-257 melanoma = system: UACC-257 melanoma
SK-OV-3 ovarian = system: SK-OV-3 ovarian
T-47D breast = system: T-47D breast
DU-145 prostate = system: DU-145 prostate
HS 578T breast = system: HS 578T breast
MDA-MB-231 breast = system: MDA-MB-231 breast
OVCAR-4 ovarian = system: OVCAR-4 ovarian
SF-268 CNS = system: SF-268 CNS
M14 melanoma = system: M14 melanoma
SK-MEL-28 melanoma = system: SK-MEL-28 melanoma
HOP-62 NSCLC = system: HOP-62 NSCLC
SW-620 colon = system: SW-620 colon
SK-MEL-2 melanoma = system: SK-MEL-2 melanoma
OVCAR-3 ovarian = system: OVCAR-3 ovarian
A549 NSCLC = system: A549 NSCLC
RXF 393 renal = system: RXF 393 renal
TK-10 renal = system: TK-10 renal
CCRF-CEM leukemia = system: CCRF-CEM leukemia
KM12 colon = system: KM12 colon
HCT-116 colon = system: HCT-116 colon
OVCAR-8 ovarian = system: OVCAR-8 ovarian
SR leukemia = system: SR leukemia
SF-539 CNS = system: SF-539 CNS
U251 CNS = system: U251 CNS
HL-60(TB) leukemia = system: HL-60(TB) leukemia

C=C(C)C(=O)Oc1ccc(N=Nc2ccc(C)cc2)ccc1=O
GI50 (NCI-H522 lung): 4.95 µM | TGI (NCI-H522 lung): 18.1 µM | GI50 (SK-MEL-5 melanoma): 4 µM | TGI (SK-MEL-5 melanoma): 15.2 µM | GI50 (IGROV1 ovarian): 2.54 µM | TGI (IGROV1 ovarian): 9.15 µM | GI50 (BT-549 breast): 6.63 µM | TGI (BT-549 breast): 21.3 µM | GI50 (MOLT-4 leukemia): 2.57 µM | TGI (MOLT-4 leukemia): 8.18 µM | GI50 (HCT-15 colon): 3.55 µM | TGI (HCT-15 colon): 18.5 µM | GI50 (NCI-H23 lung): 4.52 µM | TGI (NCI-H23 lung): 17.8 µM | GI50 (UO-31 renal): 2.55 µM | TGI (UO-31 renal): 8.38 µM | GI50 (A498 renal): 3.72 µM | TGI (A498 renal): 14.6 µM | GI50 (MDA-MB-435): 2.77 µM | TGI (MDA-MB-435): 11.2 µM | GI50 (HOP-92 NSCLC): 3.64 µM | TGI (HOP-92 NSCLC): 16.1 µM | GI50 (NCI-H226 lung): 3.57 µM | TGI (NCI-H226 lung): 18.6 µM | GI50 (ACHN renal): 3.96 µM | TGI (ACHN renal): 15.8 µM | GI50 (EKVX NSCLC): 2.32 µM | TGI (EKVX NSCLC): 8.76 µM | GI50 (SNB-19 CNS): 3.68 µM | TGI (SNB-19 CNS): 21.8 µM | GI50 (SF-295 CNS): 1.66 µM | TGI (SF-295 CNS): 4.66 µM | GI50 (K-562 leukemia): 3.36 µM | TGI (K-562 leukemia): 13.6 µM | GI50 (SNB-75 CNS): 2.66 µM | TGI (SNB-75 CNS): 10.3 µM | GI50 (UACC-62 melanoma): 1.95 µM | TGI (UACC-62 melanoma): 4.42 µM | GI50 (LOX IMVI melanoma): 2.72 µM | TGI (LOX IMVI melanoma): 11.4 µM | GI50 (SN12C renal): 3.89 µM | TGI (SN12C renal): 18.5 µM | GI50 (OVCAR-5 ovarian): 8.26 µM | TGI (OVCAR-5 ovarian): 21.8 µM | GI50 (RPMI-8226 leukemia): 3.73 µM | TGI (RPMI-8226 leukemia): 17.8 µM | GI50 (HCC-2998 colon): 3.74 µM | TGI (HCC-2998 colon): 14 µM | GI50 (COLO 205 colon): 3.58 µM | TGI (COLO 205 colon): 14.6 µM | GI50 (MCF7 breast): 3.66 µM | TGI (MCF7 breast): 14.7 µM | GI50 (786-0 renal): 4.96 µM | TGI (786-0 renal): 17.8 µM | GI50 (NCI-H460 lung): 2.85 µM | TGI (NCI-H460 lung): 10.2 µM | GI50 (PC-3 prostate): 5.54 µM | TGI (PC-3 prostate): 24.4 µM | GI50 (CAKI-1 renal): 2.26 µM | TGI (CAKI-1 renal): 5.6 µM | GI50 (HT29 colon): 4.28 µM | TGI (HT29 colon): 15.1 µM | GI50 (NCI/ADR-RES ovarian): 3.14 µM | TGI (NCI/ADR-RES ovarian): 11.4 µM | GI50 (UACC-257 melanoma): 2.99 µM | TGI (UACC-257 melanoma): 13 µM | GI50 (SK-OV-3 ovarian): 4.72 µM | TGI (SK-OV-3 ovarian): 27.7 µM | GI50 (T-47D breast): 3.14 µM | TGI (T-47D breast): 14.7 µM | GI50 (DU-145 prostate): 4.36 µM | TGI (DU-145 prostate): 15.8 µM | GI50 (HS 578T breast): 4.33 µM | TGI (HS 578T breast): 24.3 µM | GI50 (MDA-MB-231 breast): 4.84 µM | TGI (MDA-MB-231 breast): 22 µM | GI50 (OVCAR-4 ovarian): 3.63 µM | TGI (OVCAR-4 ovarian): 14.4 µM | GI50 (SF-268 CNS): 2.62 µM | TGI (SF-268 CNS): 11.2 µM | GI50 (M14 melanoma): 3.21 µM | TGI (M14 melanoma): 12.7 µM | GI50 (SK-MEL-28 melanoma): 3.39 µM | TGI (SK-MEL-28 melanoma): 11.7 µM | GI50 (HOP-62 NSCLC): 3.78 µM | TGI (HOP-62 NSCLC): 14.9 µM | GI50 (SW-620 colon): 3.16 µM | TGI (SW-620 colon): 13.4 µM | GI50 (SK-MEL-2 melanoma): 8.31 µM | TGI (SK-MEL-2 melanoma): 28.6 µM | GI50 (OVCAR-3 ovarian): 2.09 µM | TGI (OVCAR-3 ovarian): 8.13 µM | GI50 (A549 NSCLC): 3.81 µM | TGI (A549 NSCLC): 18.3 µM | GI50 (RXF 393 renal): 3.93 µM | TGI (RXF 393 renal): 14.8 µM | GI50 (TK-10 renal): 10.7 µM | TGI (TK-10 renal): 82.4 µM | GI50 (CCRF-CEM leukemia): 2.24 µM | TGI (CCRF-CEM leukemia): 9.36 µM | GI50 (KM12 colon): 3.51 µM | TGI (KM12 colon): 13.5 µM | GI50 (HCT-116 colon): 2.98 µM | TGI (HCT-116 colon): 10.5 µM | GI50 (OVCAR-8 ovarian): 3.15 µM | TGI (OVCAR-8 ovarian): 10.9 µM | GI50 (SR leukemia): 2.47 µM | TGI (SR leukemia): 8.28 µM | GI50 (SF-539 CNS): 5.17 µM | TGI (SF-539 CNS): 18.1 µM | GI50 (U251 CNS): 3.11 µM | TGI (U251 CNS): 12.7 µM | GI50 (HL-60(TB) leukemia): 2.39 µM | TGI (HL-60(TB) leukemia): 7.04 µM
